Laboratory results published in PMC12820599, “Structural characterisation of nucleotide sugar short‐chain dehydrogenases/reductases from the thermophilic pseudomurein‐containing methanogen Methanothermobacter thermautotrophicus ΔH” (The Febs Journal, 2025).

Experiments:
Format in all cases: binding
Mth375 [1] = target: T1, Mth375 (Methanothermobacter thermautotrophicus, UniProt O26475); assay: X-ray crystal structure ([…] and […] Å); settings: co-crystallised with 1.0 mM UDP; active site; NAD(H) (6PNL) or AMP (6PMH) also bound; 21 °C
T1 construct: gene MTH_375; recombinant hexahistidine-tagged (pET100D), E. coli BL21-Rosetta 2; 332 residues seen; dimer; Cys131 (and Cys13 in Mth375_NU) modified by beta-mercaptoethanol

Mth373 [2] = target: T2, Mth373 (Methanothermobacter thermautotrophicus, UniProt O26473); assay: X-ray crystal structure ([…] Å); settings: co-crystallised with 1.0 mM UDP and 2.0 mM NADH; active site of both monomers; pH 5.0; UDP also in one monomer of 9AR1
T2 construct: gene MTH_373; recombinant hexahistidine-tagged, E. coli LOBSTR BL21*; 311-residue monomer; dimer

Mth375 [3] = target: T1, Mth375; assay: X-ray crystal structure ([…] Å); settings: coenzyme site (Rossmann fold); no coenzyme added (co-purified); redox state not settled (NAD/NADH/NAD(H) printed); UDP bound
Mth373 [4] = target: T2, Mth373; assay: X-ray crystal structure ([…] and […] Å); settings: 2.0 mM NADH added; coenzyme site of each monomer; printed as NADH, NAD(H) and NAD

T2 sequence (O26473 entry or part of it): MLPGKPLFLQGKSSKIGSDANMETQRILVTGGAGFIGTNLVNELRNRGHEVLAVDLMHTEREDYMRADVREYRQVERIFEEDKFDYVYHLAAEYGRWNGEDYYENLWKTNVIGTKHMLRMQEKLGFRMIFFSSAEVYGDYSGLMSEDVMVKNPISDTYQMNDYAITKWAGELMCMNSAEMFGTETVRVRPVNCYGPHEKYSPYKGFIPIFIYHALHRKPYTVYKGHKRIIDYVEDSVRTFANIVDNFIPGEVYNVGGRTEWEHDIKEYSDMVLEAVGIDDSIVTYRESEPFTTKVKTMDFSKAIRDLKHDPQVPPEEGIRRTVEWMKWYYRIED
T1 sequence (O26475 entry or part of it): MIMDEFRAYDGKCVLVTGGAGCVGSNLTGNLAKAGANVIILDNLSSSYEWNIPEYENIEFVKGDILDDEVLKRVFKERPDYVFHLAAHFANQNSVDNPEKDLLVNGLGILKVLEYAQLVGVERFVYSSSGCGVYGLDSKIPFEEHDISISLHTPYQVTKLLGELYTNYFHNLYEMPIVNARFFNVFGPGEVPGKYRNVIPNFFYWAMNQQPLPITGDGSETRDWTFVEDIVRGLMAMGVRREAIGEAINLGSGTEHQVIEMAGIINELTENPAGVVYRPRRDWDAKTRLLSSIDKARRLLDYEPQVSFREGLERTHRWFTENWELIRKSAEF

Structure (SMILES): O=c1ccn([C@@H]2O[C@H](COP(=O)(O)OP(=O)(O)O)[C@@H](O)[C@H]2O)c(=O)[nH]1 [UDP]
- X-ray crystal structure (2.01 and 2.30 Å) (Mth375 [1]): A single molecule of UDP was bound to each Mth375 complex
- X-ray crystal structure (2.00 Å) (Mth373 [2]): A single molecule of UDP was bound to each active site of the Mth373_NU dimer

Structure (SMILES): NC(=O)C1=CN([C@@H]2O[C@H](COP(=O)(O)OP(=O)(O)OC[C@H]3O[C@@H](n4cnc5c(N)ncnc54)[C@H](O)[C@@H]3O)[C@@H](O)[C@H]2O)C=CC1 [NADH]
- X-ray crystal structure (2.01 Å) (Mth375 [3]): Mth375_NU contained a single NADH molecule
- X-ray crystal structure (1.96 and 2.00 Å) (Mth373 [4]): Both complexes have interpretable electron density for a molecule of NADH
